Assay [1] concerns the target T1, Hco-ACC-2 WT channel (Haemonchus contortus, UniProt A0A219KWM7).
T1 sequence (A0A219KWM7 18-443): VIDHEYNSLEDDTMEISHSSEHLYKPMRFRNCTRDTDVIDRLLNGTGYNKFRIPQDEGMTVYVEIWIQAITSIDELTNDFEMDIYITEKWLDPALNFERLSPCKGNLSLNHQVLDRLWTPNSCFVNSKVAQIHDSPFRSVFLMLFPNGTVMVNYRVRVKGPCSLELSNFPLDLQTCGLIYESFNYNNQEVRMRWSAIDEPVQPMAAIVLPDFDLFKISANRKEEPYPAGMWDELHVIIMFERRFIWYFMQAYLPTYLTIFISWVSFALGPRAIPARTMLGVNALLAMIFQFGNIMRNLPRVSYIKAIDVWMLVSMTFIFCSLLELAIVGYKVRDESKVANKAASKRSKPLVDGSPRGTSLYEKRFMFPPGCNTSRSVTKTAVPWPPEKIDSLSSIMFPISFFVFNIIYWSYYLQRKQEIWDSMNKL
The following applies: wild-type channel; partial = maximum response lower than 100% of ACh.

The target of assay [2] is T1, Hco-ACC-2 WT channel. As to the kind of experiment: cell-based. As to conditions: EC50 ± standard error, n ≥ 5 oocytes.

The values that follow come from publication PMC6287471 (International Journal for Parasitology: Drugs and Drug …, 2018).

Where a name gives a salt, the structure may show the parent alone.

The term EC50 denotes the concentration giving half of the maximal effect. Low values mean an effect from little substance, high ones a need for much substance. Consider `C[N+](C)(C)CCOC(N)=O` [Carbachol, Carbamoylcholine Chloride], for which the “full or partial agonist” value on Hco-ACC-2 WT channel [1] is recorded as “partial agonists”. The compound further returned an EC50 on Hco-ACC-2 WT channel [2] of 43 ± 4 µM.
For the compound `CC(C[N+](C)(C)C)OC(N)=O` (stereo not drawn) [Urecholine, Carbamyl-β-methylcholine chloride], at Hco-ACC-2 WT channel [1], the “full or partial agonist” value was “partial agonists”. Moreover, at Hco-ACC-2 WT channel [2], a half-maximal response (EC50) required 747 ± 22 µM.
Regarding `c1ccc([C@H]2CN3CCSC3=N2)cc1` [Levamisole, Levamisole Hydrochloride], the “full or partial agonist” value at Hco-ACC-2 WT channel [1] was “partial agonists”. For the same compound, the EC50 on Hco-ACC-2 WT channel [2] was 98 ± 4 µM.
At Hco-ACC-2 WT channel [2], `C[N+](C)(C)CCO` [Choline, Choline Chloride] had a concentration giving a half-maximal response (EC50) of 1280 ± 35 µM.
With `CC(=O)OC(C)C[N+](C)(C)C` (stereo not drawn) [Methacholine, Acetyl-β-methylcholine Chloride], on Hco-ACC-2 WT channel [1], the “full or partial agonist” value is listed as “full agonists”. On Hco-ACC-2 WT channel [2], the concentration for a half-maximal effect (EC50) stood at 100 ± 2 µM.
Taken in the same sequence, the figures for `CN1CCCN=C1/C=C/c1cccs1` [Pyrantel, Pyrantel Citrate Salt] were “partial agonists” and 72 ± 4 µM.
Consider `CC(=O)OCC[N+](C)(C)C` [Acetylcholine], for which the “full or partial agonist” value on Hco-ACC-2 WT channel [1] is on record as “full agonists”.
